Experimental data taken from US9499550B2 (BRISTOL-MYERS SQUIBB COMPANY, priority 2012, dated 2016).
Read-outs that look alike come from different tables or passages of the source.

Legend:
[1] = tested on: HCV genotype 1a (H77 strain) replicon in HUH-7 cells; test: HCV replicon luciferase reporter assay, genotype 1a; type: cell-based; settings: Hepatitis C virus, Huh-7, 72 h, 3 days incubation, read-out: LE_1a (EC50, range)
Summary of the method: (§1)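 Replicon inhibition for both genotypes was measured as Renilla luciferase signal (EnduRen, 7.5 μM final, 2 h) after 3-day, 37° C exposure of replicon-bearing HUH-7 cells in 4% FCS DMEM, 0.5% DMSO. The 1b construct carries S1179I; the 1a H77 construct carries P1496L and S2204I. Twenty-point, 3-fold dilutions were fitted four-parametrically for EC50, and CC50 was taken from multiplexed Cell Titer-Blue.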

[2] = tested on: HCV genotype 1b (Con1) replicon in HUH-7 cells; test: HCV replicon luciferase reporter assay, genotype 1b; type: cell-based; settings: Hepatitis C virus, Huh-7, 72 h, 3 days incubation, read-out: LE_1b (EC50, range)
Summary of the method: as §1

[3] = HCV genotype 1a replicon luciferase assay, range class
[4] = HCV genotype 1b replicon luciferase assay, range class
[5] = HCV genotype 1a replicon luciferase
[6] = HCV genotype 1b replicon luciferase

Row | SMILES | EC50 [1, 3] | EC50 [2, 4] | EC50 [1, 5] | EC50 [2, 6]
1 | COc1ccc2c(O[C@@H]3C[C@H]4C(=O)N[C@]5(C(=O)NS(=O)(=O)C6(CF)CC6)C[C@H]5/C=C\CC[C@@H](C)C[C@@H](C)[C@H](NC(=O)OC(C)(C)C(F)(F)F)C(=O)N4C3)nc(N(C)C)nc2c1 [Compound 3010, 1,1,1-trifluoro-2-methylpropan-2-yl((2R,6S,7R,9R,13aS,14aR,16aS,Z)-2-((2-(dimethylamino)-7-methoxyquinazolin-4-yl)oxy)-14a-(((1-(fluoromethyl)cyclopropyl)sulfonyl)carbamoyl)-7,9-dimethyl-5,16-dioxo-1,2,3,5,6,7,8,9,10,11,13a,14,14a,15,16,16a-hexadecahydrocyclopropa[e]pyrrolo[1,2-a][1,4]diazacyclopentadecin-6-yl)carbamate] | < 5.46 nM | < 5.46 nM | – | –
2 | COc1cc(F)cc2c(O[C@@H]3C[C@H]4C(=O)N[C@]5(C(=O)NS(=O)(=O)C6(CF)CC6)C[C@H]5/C=C\CC[C@@H](C)C[C@@H](C)[C@H](NC(=O)OC(C)(C)C(C)(F)F)C(=O)N4C3)nccc12 [Compound 3180, 3,3-difluoro-2-methylbutan-2-yl((2R,6S,7R,9R,13aS,14aR,16aS,Z)-2-((7-fluoro-5-methoxyisoquinolin-1-yl)oxy)-14a-(((1-(fluoromethyl)cyclopropyl)sulfonyl)carbamoyl)-7,9-dimethyl-5,16-dioxo-1,2,3,5,6,7,8,9,10,11,13a,14,14a,15,16,16a-hexadecahydrocyclopropa[e]pyrrolo[1,2-a][1,4]diazacyclopentadecin-6-yl)carbamate] | < 5.46 nM | < 5.46 nM | – | –
3 | COc1ccc2c(O[C@@H]3C[C@H]4C(=O)N[C@]5(C(=O)NS(=O)(=O)C6(C)CC6)C[C@H]5/C=C\CC[C@H](C)C[C@@H](C)[C@H](NC(=O)O[C@H](C)C(F)(F)F)C(=O)N4C3)nc(-c3ccc(OC(C)C)cc3)c(OC)c2c1 [Compound 5349, (R)-1,1,1-trifluoropropan-2-yl ((2R,6S,7R,9S,13aS,14aR,16aS,Z)-2-((3-(4-isopropoxyphenyl)-4,6-dimethoxyisoquinolin-1-yl)oxy)-7,9-dimethyl-14a-(((1-methylcyclopropyl)sulfonyl)carbamoyl)-5,16-dioxo-1,2,3,5,6,7,8,9,10,11,13a,14,14a,15,16,16a-hexadecahydrocyclopropa[e]pyrrolo[1,2-a][1,4]diazacyclopentadecin-6-yl)carbamate] | – | – | 4.82 to 103 nM | < 5.46 nM
4 | [2H]C([2H])([2H])C(OC(=O)N[C@@H]1C(=O)N2C[C@H](Oc3nc(-c4ccc(OC(C)C)nc4)cc4cc(OC)ccc34)C[C@H]2C(=O)N[C@]2(C(=O)NS(=O)(=O)C3(C)CC3)C[C@H]2/C=C\CC[C@H](C)C[C@H]1C)(C([2H])([2H])[2H])C(F)(F)F [Compound 5226, 1,1,1,3,3,3-hexadeutero-2-(trifluoromethyl)propan-2-yl((2R,6S,7R,9S,13aS,14aR,16aS,Z)-2-((3-(6-isopropoxypyridin-3-yl)-6-methoxyisoquinolin-1-yl)oxy)-7,9-dimethyl-14a-(((1-methylcyclopropyl)sulfonyl)carbamoyl)-5,16-dioxo-1,2,3,5,6,7,8,9,10,11,13a,14,14a,15,16,16a-hexadecahydrocyclopropa[e]pyrrolo[1,2-a][1,4]diazacyclopentadecin-6-yl)carbamate] | – | – | 4.82 to 103 nM | 4.82 to 103 nM
5 | COc1ccc2c(O[C@@H]3C[C@H]4C(=O)N[C@]5(C(=O)NS(=O)(=O)C6(C)CC6)C[C@H]5/C=C\CC[C@@H](C)C[C@@H](C)[C@H](NC(=O)O[C@@H]5C[C@@H]6C[C@@H]6C5)C(=O)N4C3)nc(N3CCOCC3)cc2c1 [Compound 3097, (1R,3r,5S)-bicyclo[3.1.0]hexan-3-yl((2R,6S,7R,9R,13aS,14aR,16aS,Z)-2-((6-methoxy-3-morpholinoisoquinolin-1-yl)oxy)-7,9-dimethyl-14a-(((1-methylcyclopropyl)sulfonyl)carbamoyl)-5,16-dioxo-1,2,3,5,6,7,8,9,10,11,13a,14,14a,15,16,16a-hexadecahydrocyclopropa[e]pyrrolo[1,2-a][1,4]diazacyclopentadecin-6-yl)carbamate] | < 5.46 nM | < 5.46 nM | – | –
6 | CC[C@@H]1C[C@@H](C)CC/C=C\[C@@H]2C[C@@]2(C(=O)NS(=O)(=O)C2(C)CC2)NC(=O)[C@@H]2C[C@@H](Oc3nc(OC)cc4cc(OC)ccc34)CN2C(=O)[C@H]1NC(=O)OC(C)(C)C(C)(F)F [Compound 1123, 3,3-difluoro-2-methylbutan-2-yl((2R,6S,7R,9S,13aS,14aR,16aS,Z)-2-((3,6-dimethoxyisoquinolin-1-yl)oxy)-7-ethyl-9-methyl-14a-(((1-methylcyclopropyl)sulfonyl)carbamoyl)-5,16-dioxo-1,2,3,5,6,7,8,9,10,11,13a,14,14a,15,16,16a-hexadecahydrocyclopropa[e]pyrrolo[1,2-a][1,4]diazacyclopentadecin-6-yl)carbamate] | < 5.46 nM | < 5.46 nM | – | –
7 | CC[C@@H]1C[C@H](C)CC/C=C\[C@@H]2C[C@@]2(C(=O)NS(=O)(=O)C2(C)CC2)NC(=O)[C@@H]2C[C@@H](Oc3nccc4cc(OC)c(F)cc34)CN2C(=O)[C@H]1NC(=O)OC(C)(C)C [Compound 4175, tert-butyl (2R,6S,7R,9R,13aS,14aR,16aS,Z)-7-ethyl-2-(7-fluoro-6-methoxyisoquinolin-1-yloxy)-9-methyl-14a-(1-methylcyclopropylsulfonylcarbamoyl)-5,16-dioxo-1,2,3,5,6,7,8,9,10,11,13a,14,14a,15,16,16a-hexadecahydrocyclopropa[e]pyrrolo[1,2-a][1,4]diazacyclopentadecin-6-ylcarbamate] | – | – | < 5.46 nM | < 5.46 nM
8 | CCCOc1cc2c(Cl)cccc2c(O[C@@H]2C[C@H]3C(=O)N[C@]4(C(=O)NS(=O)(=O)C5CC5)C[C@H]4/C=C\CC[C@@H](C)C[C@@H](C)[C@H](NC(=O)OC(C)(C)C)C(=O)N3C2)n1 [Compound 1070, tert-butyl ((2R,6S,7R,9R,13aS,14aR,16aS,Z)-2-((5-chloro-3-propoxyisoquinolin-1-yl)oxy)-14a-((cyclopropylsulfonyl)carbamoyl)-7,9-dimethyl-5,16-dioxo-1,2,3,5,6,7,8,9,10,11,13a,14,14a,15,16,16a-hexadecahydrocyclopropa[e]pyrrolo[1,2-a][1,4]diazacyclopentadecin-6-yl)carbamate] | < 5.46 nM | < 5.46 nM | – | –
9 | CCn1nc(O[C@@H]2C[C@H]3C(=O)N[C@]4(C(=O)NS(=O)(=O)C5(C)CC5)C[C@H]4/C=C\CC[C@@H](C)C[C@@H](C)[C@H](NC(=O)OC(C)(C)C(F)(F)F)C(=O)N3C2)c2ccccc2c1=O [Compound 5053, 1,1,1-trifluoro-2-methylpropan-2-yl((2R,6S,7R,9R,13aS,14aR,16aS,Z)-2-((3-ethyl-4-oxo-3,4-dihydrophthalazin-1-yl)oxy)-7,9-dimethyl-14a-(((1-methylcyclopropyl)sulfonyl)carbamoyl)-5,16-dioxo-1,2,3,5,6,7,8,9,10,11,13a,14,14a,15,16,16a-hexadecahydrocyclopropa[e]pyrrolo[1,2-a][1,4]diazacyclopentadecin-6-yl)carbamate] | – | – | 4.82 to 103 nM | < 5.46 nM
